In patent US20090076029A1 (Palatin Technologies, Inc., priority 2007, published 2009):
Like-named read-outs stand apart in the source and are kept apart here.

Assays:
hMC4-R [1] = test system: T1, hMC4-R; test: cAMP functional assay in HEK-293 cells expressing MC4-R (agonist, neutral antagonist/Schild); format: cell-based, human; details: for functional status (pAg, Ag, Antag, Inactive): MC4-R, Table 1
T1 construct: expressed in transfected cells; host or cells: HEK-293
How it was run: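 Cells in EBSS/HEPES pH 7.5 with 0.3 mM IBMX, exposed to compound (0.05-5000 nM, 1% DMSO) for 1 h at 37 °C; cAMP by EIA, EC50 by nonlinear regression. Antagonism: 30 min compound pre-incubation, then 1 nM NDP-α-MSH for 1 h; Schild analysis over 0.005-5000 nM agonist gives pA2.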

hMC5-R = test system: T2, hMC5-R; test: Competitive inhibition assay using [I125]-NDP-α-MSH, hMC5-R membranes; format: binding, human; details: for Inhibition at 1 μM (NDP-α-MSH) MC5-R: 1 μM compound; for Ki: read-out: Ki (nM) (NDP-α-MSH) MC5-R
T2 construct: expressed in transfected cells; host or cells: HEK-293
How it was run: (§1)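 Membranes from HEK-293 cells expressing hMC3-R, hMC4-R or hMC5-R, or from mouse B-16 melanoma cells (MC1-R), with 0.2–0.4 nM [125I]-NDP-α-MSH in 50 mM HEPES pH 7.2 with Mg2+, Ca2+, K+. Test compound typically 1 μM; 90 min, room temperature; filtration, gamma counting. Percent inhibition vs specific binding (1 μM α-MSH), triplicate mean, negatives as 0%.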

hMC4-R [2] = test system: T1, hMC4-R; format: binding, human
How it was run: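 Membranes from hMC4-R-expressing cells incubated 1 h at 37 °C with 0.2 nM [I^125]-AgRP (83-132) and increasing compound in 25 mM HEPES pH 7.5, 100 mM NaCl, 2 mM CaCl2, 2 mM MgCl2, 0.3 mM 1,10-phenanthroline, 0.5% BSA. Filtration, gamma counting; specific binding kept ≤10% of added counts.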

hMC3-R = test system: T3, hMC3-R; test: Competitive inhibition assay using [I125]-NDP-α-MSH, hMC3-R membranes; format: binding, human; details: for Inhibition at 1 μM (NDP-α-MSH) MC3-R: 1 μM compound; for Ki: read-out: Ki (nM) (NDP-α-MSH) MC3-R
T3 construct: expressed in transfected cells; host or cells: HEK-293
How it was run: as §1

MC1-R = test: Competitive inhibition assay using [I125]-NDP-α-MSH, MC1-R membranes; format: binding, mouse; details: for Inhibition at 1 μM (NDP-α-MSH) MC1-R: 1 μM compound
hMC4-R [3] = test system: T1, hMC4-R; test: Competitive inhibition assay using [I125]-NDP-α-MSH, hMC4-R membranes; format: binding, human; details: for Inhibition at 1 μM (NDP-α-MSH) MC4-R: 1 μM compound
MC4-R = test system: T4, MC4-R; format: cell-based; details: HEK-293 cells expressing MC4-R
T4 construct: expressed in transfected cells; host or cells: HEK-293
Excerpt: Assay for Antagonists of AgRP in HEK-293/MC4-R Cells stimulated with Forskolin. […] AgRP causes a decrease in the basal adenylyl cyclase activity only to the extent of 40-50%. Even though the AgRP-induced decrease in cAMP levels is substantial, conventional assay methods, such as those described above, have limited sensitivity, precluding detecting small changes that are reversed by certain antagonists to AgRP. This limitation was circumvented by the use of a non-specific activator, forskolin, which directly activates adenylyl cyclase activity and raises cyclic AMP levels. Forskolin, a cell permeable diterpenoid initially isolated from Coleus forskohlii, has the ability to stimulate adenylyl cyclase activity and increase intracellular cAMP, thus activating cAMP-dependent protein kinase and other cAMP receptor proteins. See, e.g., Seamon, K. B., Daly, J. W. Forskolin: a unique diterpene activator of cyclic AMP-generating system. J. Cyclic Nucleotide Res. 7(4):201-24, 1981; Fradkin, J. E., Cook, G. H., Kilhoffer, M. C., Wolff, J. Forskolin stimulation of thyroid adenylate cyclase and cyclic 3′,5′-adenosine monophosphate accumulation. Endocrinology 111 (3):849-56, 1982; Barber, R., Goka, T. J. Adenylate cyclase activity as a function of forskolin concentration. J. Cyclic Nucleotide Protein Phosphor. Res. 10(1):23-9, 1985; and Laurenza, A., Sutkowski, E. M., Seamon, K. B. Forskolin: a specific stimulator of adenylyl cyclase or a diterpene with multiple sites of action? Trends Pharmacol. Sci. 10(11):442-7, 1989. […] The EC50 value was about 5 μM. AgRP inhibited the forskolin-induced response by 65% at a concentration of 10 nM. The difference in forskolin stimulated response and the inhibition due to AgRP in the cAMP levels was exploited to screen compounds for their ability to antagonize AgRP inhibition and […] levels of cAMP accumulation.
Experimental details for assays included incubating cells with the test compound in the presence of the inverse agonist AgRP with the extent of reversal of the AgRP effect measured by following the increase in the levels of intracellular cAMP. HEK-293 cells expressing MCR-4 were suspended in 10 mM HEPES/Earle's Balanced Salt Solution at pH 7.5 with the phosphodiesterase inhibitor IBMX, and pre-incubated for 30 minutes with the compounds (0.5-5000 nM). The cells were then treated with AgRP (10 nM) and incubated further for 30 minutes. The cells were then treated with forskolin (10 μM) and incubated for an additional 60 minutes. Cells were lysed and cAMP was measured by EIA kit (Amersham).

[4] = MC4-R membranes, Table 1, read-out: Ki (nM) I125-AgRP
[5] = MC4-R membranes, Table 1, read-out: Ki (nM) I125-NPD-α-MSH
[6] = read-out: Ki (nM) (NDP-α-MSH) MC4-R

Compound: NCCCC[C@H]1C(=O)N(CCc2ccc3ccccc3c2)CCN1C(=O)[C@@H](Cc1ccc(Cl)cc1Cl)NC(=O)/C=C/c1ccccc1 [Example 21, (E)-N—[(R)-2-[(S)-2-(4-Amino-butyl)-4-(2-naphthalen-2-yl-ethyl)-3-oxo-piperazin-1-yl]-1-(2,4-dichloro-benzyl)-2-oxo-ethyl]-3-phenyl-acrylamide]
- functional status (pAg, Ag, Antag, Inactive) (hMC4-R [1]): pAg (“pAg” means partial agonist)
- intrinsic activity at MC4-R (hMC4-R [1]; NDP-α-MSH maximal stimulation = 1.0): 0.2
- EC50 (hMC4-R [1]; cAMP assay, read-out: EC50 (nM) at MC4-R): 112 nM
- Inhibition at 1 μM (NDP-α-MSH) MC5-R (hMC5-R): 60%
- Ki (hMC5-R): 398 nM
- Inhibition at 1 μM (AgRP) MC4-R (hMC4-R [2]; 1 μM compound): 100%
- Ki (hMC4-R [2]; [4]): 5 nM
- Ki (hMC4-R [2]; read-out: Ki (nM) (AgRP) MC4-R): 5 nM
- Inhibition at 1 μM (NDP-α-MSH) MC3-R (hMC3-R): 46%
- Ki (hMC3-R): 648 nM
- Ki (MC1-R): 502 nM
- Inhibition at 1 μM (NDP-α-MSH) MC1-R (MC1-R): 30%
- Inhibition at 1 μM (NDP-α-MSH) MC4-R (hMC4-R [3]): 96%
- Ki (hMC4-R [3]; [5]): 6 nM
- attenuation of binding of α-MSH and AgRP to MC4-R (hMC4-R [3]; both ligands (NDP-α-MSH and AgRP), summary): attenuate the binding of both α-MSH and AgRP to MC4-R
- Ki (hMC4-R [3]; [6]): 6 nM

Compound: N=C(N)NCCC[C@H]1CN(C(=O)Cc2ccc3ccccc3c2)[C@H](Cc2ccccc2)CN1C[C@H](N)Cc1ccc2ccccc2c1 [Example 30, N-{3-[1-[2(R)-Amino-3-naphthalen-2-yl-propyl]-5(R)-benzyl-4-(2-naphthalen-2-yl-acetyl)-piperazin-2(S)-yl]-propyl}-guanidine]
- functional status (pAg, Ag, Antag, Inactive) (hMC4-R [1]): Inactive
- functional status at MC4-R (hMC4-R [1]; cAMP assay, mostly at 1 μM): inactive
- Inhibition at 1 μM (NDP-α-MSH) MC5-R (hMC5-R): 87%
- Ki (hMC5-R): 178 nM
- Ki (hMC4-R [2]; [4]): 90 nM
- Ki (hMC4-R [2]; read-out: Ki (nM) (AgRP) MC4-R): 90 nM
- Inhibition at 1 μM (NDP-α-MSH) MC3-R (hMC3-R): 49%
- Ki (hMC3-R): 387 nM
- Ki (MC1-R): 2770 nM
- Inhibition at 1 μM (NDP-α-MSH) MC1-R (MC1-R): 32%
- Inhibition at 1 μM (NDP-α-MSH) MC4-R (hMC4-R [3]): 92%
- Ki (hMC4-R [3]; [5]): 55 nM
- Ki (hMC4-R [3]; [6]): 61 nM

Compound: Forskolin [reference compound]
- total response relative to NDP-α-MSH (MC4-R): three-fold higher
- EC50 (MC4-R; read-out: EC50 value (cAMP stimulation)): ~5000 nM
